Assay results: PMC12055039 (Organic & biomolecular chemistry, 2024)
Read-outs that look alike come from different tables or passages of the source.

How the values were obtained:
[1] = test system: T. brucei; settings: read-out: EC50 (T. brucei); Phase III candidate for trypanosomiasis; cited from earlier work
[2] = test system: T. brucei; experiment: Antiparasitic screening against T. brucei; type: cell-based; settings: read-out: T. brucei EC50; mean ± standard error, 3 biological replicates
[3] = test system: L. amazonensis; experiment: Antiparasitic screening against L. amazonensis; type: cell-based; settings: read-out: L. amazonensis EC50; mean ± standard error, 3 biological replicates
[4] = test system: P. falciparum 3D7; experiment: Antiparasitic screening against P. falciparum 3D7; type: cell-based; settings: read-out: P. falciparum 3D7 EC50; mean ± standard error, 3 biological replicates
[5] = Cytotoxicity against HepG2 cells; settings: human
[6] = test system: L. amazonensis; settings: read-out: L. amazonensis EC50; 6/5-spiroindimicins; ref 4b; cited from earlier work

In the case of `CC1(C)OB(O)c2cc(NC(=O)c3ccc(F)cc3C(F)(F)F)ccc21` [acoziborole], the EC50 [1] is listed as 0.6 µM.
Work on `COC(=O)c1[nH]cc2c1[C@]1(CNc3ccc(Cl)cc31)c1[nH]c3ccc(Cl)cc3c1-2` (racemic) [Compound 3, spiroindimicin C] yielded an EC50 [2] of 13 ± 0.98 µM, an EC50 [3] of over 10 µM and an EC50 [4] of 7.1 ± 0.58 µM.
spiroindimicin G [Compound 7] gave an EC50 [2] of 0.65 ± 0.14 µM, an EC50 [3] of 8.1 ± 0.5 µM and an EC50 [4] of 7.6 ± 0.47 µM.
In the case of `COC(=O)c1[nH]cc2c1[C@]1(CN(C)c3ccc(Cl)cc31)c1[nH]c3ccc(Cl)cc3c1-2` (racemic) [Compound 2, spiroindimicin B], the EC50 [2] is reported as 3 ± 0.23 µM, the EC50 [3] is reported as 8 ± 0.49 µM and the EC50 [4] is reported as 3 ± 0.2 µM.
With `COC(=O)c1[nH]cc2c1[C@@]1(CN(C)c3ccccc31)c1[nH]c3ccc(Cl)cc3c1-2` (racemic) [Compound 6, spiroindimicin F] the EC50 [2] was 4 ± 0.2 µM, the EC50 [3] was 9.9 ± 1.2 µM and the EC50 [4] was 9 ± 0.97 µM.
Work on `COC(=O)c1[nH]cc2c1[C@@]1(CN(C)c3ccc(Cl)cc31)c1[nH]c3ccccc3c1-2` (racemic) [Compound 5, spiroindimicin E] yielded an EC50 [2] of 4.4 ± 0.32 µM, an EC50 [3] of 9.3 ± 1.7 µM and an EC50 [4] of 4.8 ± 0.51 µM.
For `C[C@H]1CCC/C=C/[C@@H]2C[C@H](O)C[C@H]2[C@H](O)/C=C/C(=O)O1` [brefeldin A], the CC50 [5] was 0.064 ± 0.0045 µM.
For N-PMB spiroindimicin C [Compound 74], the EC50 [2] was 1.2 ± 0.03 µM, the EC50 [3] was over 10 µM and the EC50 [4] was 3.7 ± 0.35 µM.
`COC(=O)c1[nH]c(C(=O)OC)c2c1-c1c([nH]c3ccc(Cl)cc13)[C@@]21CN(C)c2ccc(Cl)cc21` (racemic) [Compound 4, spiroindimicin D] showed an EC50 [2] of 3.4 ± 0.21 µM, an EC50 [3] of 7.7 ± 0.23 µM and an EC50 [4] of 5.6 ± 0.22 µM.
For `COC(=O)c1[nH]c(C(=O)OC)c2c1-c1c[nH]c3ccc(Cl)c(c13)[C@@]21C=Nc2ccc(Cl)cc21` [Compound 1, spiroindimicin A], the EC50 [6] is given as 1.3 µM.
